Results taken from ChEMBL document CHEMBL3045401, “(Naphthalen-1-yloxy)-acetic acid benzylidene/(1-phenyl-ethylidene)-hydrazide derivatives: synthesis, antimicrobial evaluation, and QSAR studies” (Med Chem Res, 2012).
In brackets after ≈: the same amount, converted by molar mass.

Legend:
[1] = Cytotoxicity against HEL; type: cell-based; details: human, HEL cells
[2] = test system: Staphylococcus aureus; assay: Antimicrobial activity against Staphylococcus aureus after 24 hr by serial dilution method; type: functional
[3] = test system: Human immunodeficiency virus 2; assay: Antiviral activity against Human immunodeficiency virus type 2 (ISOLATE ROD) infected human MT4 cells assessed as inhibition of virus-induced cytopathic effect after 4 days by MTT assay; type: functional, organism-based; details: Human immunodeficiency virus 2, ISOLATE ROD, MT4, 96 h
[4] = test system: Human betaherpesvirus 5; assay: Antiviral activity against Human herpesvirus 5 Davis infected human HEL cells assessed as reduction in the virus plaque formation; type: functional, organism-based; details: Human betaherpesvirus 5, Davis
[5] = test system: Human alphaherpesvirus 3; assay: Antiviral activity against thymidine kinase-positive Human herpesvirus 3 infected in HEL cells assessed as inhibition of viral plaque formation; type: functional, organism-based; details: Human alphaherpesvirus 3, HEL
[6] = Cytotoxicity against HEL assessed as minimum concentration required to cause morphological changes; type: cell-based; details: human, HEL cells
[7] = test system: Aspergillus niger; assay: Antimicrobial activity against Aspergillus niger after 7 days by serial dilution method; type: functional
[8] = Cytotoxicity against Homo sapiens (human) MT4 cells after 4 days by MTT assay; type: cell-based
[9] = test system: Human alphaherpesvirus 3; assay: Antiviral activity against thymidine kinase-deficient Human herpesvirus 3 infected in HEL cells assessed as inhibition of viral plaque formation; type: functional, organism-based; details: Human alphaherpesvirus 3, HEL
[10] = test system: Bacillus subtilis; assay: Antimicrobial activity against Bacillus subtilis after 24 hr by serial dilution method; type: functional
[11] = test system: Escherichia coli; assay: Antimicrobial activity against Escherichia coli after 24 hr by serial dilution method; type: functional
[12] = Octanol-water partition coefficient, log P of the compound; type: physicochemical
[13] = test system: Human immunodeficiency virus 1; assay: Antiviral activity against Human immunodeficiency virus 1 IIIB infected human MT4 cells assessed as inhibition of virus-induced cytopathic effect after 4 days by MTT assay; type: functional, organism-based; details: MT4, 96 h
[14] = test system: Human betaherpesvirus 5; assay: Antiviral activity against Human herpesvirus 5 strain AD169 infected human HEL cells assessed as reduction in the virus plaque formation; type: functional, organism-based; details: Human betaherpesvirus 5, AD169, HEL
[15] = test system: Candida albicans; assay: Antimicrobial activity against Candida albicans after 2 days by serial dilution method; type: functional

Structure (SMILES)	CC50 [1] [µg/mL]	-logMIC [2]	EC50 [3] [µg/mL]	EC50 [4] [µg/mL]	EC50 [5] [µg/mL]	MCC [6] [µg/mL]	-logMIC [7]	CC50 at 96 h [8] [µg/mL]	EC50 [9] [µg/mL]	-logMIC [10]	-logMIC [11]	logP [12]	EC50 [13] [µg/mL]	EC50 [14] [µg/mL]	-logMIC [15]
O=C(COc1cccc2ccccc12)N/N=C/c1c(O)ccc2ccccc12	1.94 (≈ 5.24 µM)	0.87	> 2.12	> 0.8	> 0.8	4	0.87	2.12 (≈ 5.72 µM)	> 0.8	0.57	0.87	4.74	> 2.12	> 0.8	0.87
O=C(COc1cccc2ccccc12)N/N=C/c1c[nH]c2ccccc12	> 100	0.84	> 51.5	> 20	> 20	100	0.84	51.5 (≈ 150 µM)	> 20	1.14	0.84	3.79	> 51.5	> 20	0.84
C/C(=N\NC(=O)COc1cccc2ccccc12)c1ccccc1	20 (≈ 62.8 µM)	0.82	> 105	> 4	> 20	20	0.82	105 (≈ 328 µM)	> 20	0.82	0.82	3.65	> 105	> 4	0.82
C/C(=N\NC(=O)COc1cccc2ccccc12)c1ccc(Cl)cc1	7.1 (≈ 20.1 µM)	1.45	> 4.07	4 (≈ 11.3 µM)	2.5 (≈ 7.09 µM)	≥ 4	0.85	4.07 (≈ 11.5 µM)	3.24 (≈ 9.18 µM)	1.15	1.15	4.17	> 4.07	> 0.8	1.75
C/C(=N\NC(=O)COc1cccc2ccccc12)c1ccccc1Br	16.2 (≈ 40.8 µM)	1.2	> 79.8	> 4	> 4	20	1.5	79.8 (≈ 201 µM)	> 4	1.2	1.2	4.44	> 79.8	> 4	1.5
C/C(=N\NC(=O)COc1cccc2ccccc12)c1ccc(Br)cc1	15.3 (≈ 38.5 µM)	0.6	> 77.6	> 4	> 4	20	0.6	77.6 (≈ 195 µM)	> 4	0.9	0.6	3.61	> 77.6	> 4	0.6
C/C(=N\NC(=O)COc1cccc2ccccc12)c1ccc(C#N)cc1Br	12.7 (≈ 30.1 µM)	1.23	> 12.1	> 4	> 4	20	1.53	12.1 (≈ 28.7 µM)	> 4	1.23	1.53	3.61	> 12.1	> 4	2.13
C/C(=N\NC(=O)COc1cccc2ccccc12)c1cccc([N+](=O)[O-])c1	10.5 (≈ 28.9 µM)	1.76	> 12.1	> 4	> 4	20	1.46	12.1 (≈ 33.2 µM)	> 4	1.16	1.46	3.37	> 12.1	> 4	1.76
C/C(=N\NC(=O)COc1cccc2ccccc12)c1ccc([N+](=O)[O-])cc1	> 100	1.16	> 89.3	> 20	> 20	100	0.86	89.3 (≈ 246 µM)	> 20	1.16	1.46	3.37	> 89.3	> 20	1.46
C/C(=N\NC(=O)COc1cccc2ccccc12)c1ccccc1O	4 (≈ 12 µM)	1.13	> 11.2	> 4	7 (≈ 20.9 µM)	20	0.82	11.2 (≈ 33.6 µM)	7.9 (≈ 23.6 µM)	0.82	1.43	3.08	> 11.2	> 4	0.82
C/C(=N\NC(=O)COc1cccc2ccccc12)c1ccc(O)cc1	11.1 (≈ 33.2 µM)	1.13	> 68.8	> 4	> 4	20	1.43	68.8 (≈ 206 µM)	> 0.8	1.13	1.43	4.44	> 68.8	> 4	1.43
C/C(=N\NC(=O)COc1cccc2ccccc12)c1ccc(O)cc1O	74.8 (≈ 213 µM)	1.15	> 59.9	> 100	58.5 (≈ 167 µM)	> 100	1.45	59.9 (≈ 171 µM)	> 100	1.15	1.75	4.31	> 59.9	> 100	1.45
NNC(=O)COc1ccc2ccccc2c1 [2-NAPHTHOXY ACETIC ACID HYDRAZIDE]		0.94					0.64			0.64	0.94				0.64
Nc1nc2c(ncn2COCCO)c(=O)[nH]1 [ACYCLOVIR]	120 (≈ 533 µM)				0.44 (≈ 1.95 µM)	> 100			23 (≈ 102 µM)						
O=c1[nH]c(=O)n([C@H]2C[C@H](O)[C@@H](CO)O2)cc1/C=C/Br [BRIVUDINE]	173 (≈ 519 µM)				0.0093 (≈ 0.0279 µM)	> 100			20 (≈ 60 µM)						
Nc1ccn(C[C@@H](CO)OCP(=O)(O)O)c(=O)n1.O.O [CIDOFOVIR]	35.4			0.3		> 100								0.8	
OC(Cn1cncn1)(Cn1cncn1)c1ccc(F)cc1F [FLUCONAZOLE]							2.64								2.64
Nc1nc2c(ncn2COC(CO)CO)c(=O)[nH]1 [GANCICLOVIR]	60.5 (≈ 237 µM)			1.79 (≈ 7.01 µM)		> 100								2.68 (≈ 10.5 µM)	
Cc1ccnc2c1NC(=O)c1cccnc1N2C1CC1 [NEVIRAPINE]			> 4					> 4							
CCn1cc(C(=O)O)c(=O)c2cc(F)c(N3CCNCC3)cc21 [NORFLOXACIN]		2.61								2.61	2.61				
Cc1cn([C@H]2C[C@H](N=[N+]=[N-])[C@@H](CO)O2)c(=O)[nH]c1=O [ZIDOVUDINE]								> 25					0.002 (≈ 0.00748 µM)		
